Experimental data from ChEMBL document CHEMBL5380782, “Design, Biological Evaluation, and Computer-Aided Analysis of Dihydrothiazepines as Selective Antichlamydial Agents” (J Med Chem, 2023).

Legend:
[1] = Stability of compound in human serum assessed as compound remaining at 2 mg/ml measured after 24 hrs by HPLC analysis; type: ADME, cell-free; settings: read-out: Stability
Chlamydia trachomatis [2] = test: Antibacterial activity against Chlamydia trachomatis serovar L2 infected in HEp-2 cells assessed as bacterial growth inhibition incubated for 16 hrs by IFA assay; type: functional, organism-based; settings: serovar L2, HEp-2, 16 h
Chlamydia trachomatis [3] = test: Antibacterial activity against Chlamydia trachomatis L2 infected in HEp-2 cells assessed as reduction in number of chlamydial inclusion incubated for 24 hrs by fluorescence microscopy; type: functional, organism-based; settings: dose 1.56-12.5 µg/ml
Escherichia coli = test: Antimicrobial activity against non-pathogenic Escherichia coli ATCC MG1655 assessed as microbial growth inhibition incubated for 24 hrs by TTC staining based assay; type: functional
[4] = test system: Lacticaseibacillus rhamnosus; test: Antimicrobial activity against Lactobacillus rhamnosus CGMCC 1.3724 assessed as microbial growth inhibition incubated for 24 hrs by TTC staining based assay; type: functional
[5] = test system: Bacteroides thetaiotaomicron; test: Antimicrobial activity against Bacteroides thetaiotaomicron DSM 2079 assessed as microbial growth inhibition incubated for 48 hrs; type: functional
Nakaseomyces glabratus = test: Antimicrobial activity against Candida glabrata 2001 assessed as microbial growth inhibition by broth microdilution method; type: functional
Pichia kudriavzevii = test: Antimicrobial activity against Pichia kudriavzevii 6558 assessed as microbial growth inhibition by broth microdilution method; type: functional
Candida tropicalis = test: Antimicrobial activity against Candida tropicalis 750 assessed as microbial growth inhibition by broth microdilution method; type: functional
[6] = Cytotoxicity against HEC-1-A cells assessed as cell survival at 256 ug/ml incubated for 20 hrs by XTT assay relative to control; type: toxicity, cell-based; settings: human, at 256 µg/mL, read-out: Survival
[7] = Cytotoxicity against HEp-2 cells assessed as cell viability at 256 ug/ml incubated for 20 hrs by XTT assay relative to control; type: toxicity, cell-based; settings: human, at 256 µg/mL, read-out: Activity
[8] = Stability of compound in simulated intestinal fluid assessed as compound remaining at 2 mg/ml measured after 24 hrs by HPLC analysis; type: ADME; settings: read-out: Stability
[9] = Mutagenicity in Salmonella typhimurium TA98 assessed as number of revertants per plate at 50 ug pretreated for 90 mins measured after 66 hrs by AMES test (reference value: 25.67 +/- 5.51); type: toxicity, Salmonella enterica subsp. enterica serovar Typhimurium; settings: in vivo, 67.5 h, dose 50 µg
[10] = Mutagenicity in Salmonella typhimurium TA98 assessed as number of revertants per plate at 150 ug pretreated for 90 mins measured after 66 hrs by AMES test (reference value: 25.67 +/- 5.51); type: toxicity, Salmonella enterica subsp. enterica serovar Typhimurium; settings: in vivo, 67.5 h, dose 150 µg
[11] = Mutagenicity in Salmonella typhimurium TA98 assessed as mutagenic index ratio at 150 ug pretreated for 90 mins measured after 66 hrs by AMES test; type: toxicity, Salmonella enterica subsp. enterica serovar Typhimurium; settings: in vivo, 67.5 h, dose 150 µg
[12] = Mutagenicity in Salmonella typhimurium TA98 assessed as mutagenic index ratio at 500 ug pretreated for 90 mins measured after 66 hrs by AMES test; type: toxicity, Salmonella enterica subsp. enterica serovar Typhimurium; settings: in vivo, 67.5 h, dose 500 µg
[13] = Mutagenicity in Salmonella typhimurium TA98 assessed as number of revertants per plate at 150 ug pretreated for 90 mins measured after 66 hrs in presence of S9 fraction by AMES test (reference value: 24.33 +/- 9.50); type: toxicity, subcellular, Salmonella enterica subsp. enterica serovar Typhimurium; settings: s9, 67.5 h, dose 150 µg
[14] = Mutagenicity in Salmonella typhimurium TA98 assessed as number of revertants per plate at 500 ug pretreated for 90 mins measured after 66 hrs in presence of S9 fraction by AMES test (reference value: 24.33 +/- 9.50); type: toxicity, subcellular, Salmonella enterica subsp. enterica serovar Typhimurium; settings: s9, 67.5 h, dose 500 µg
[15] = Mutagenicity in Salmonella typhimurium TA98 assessed as number of revertants per plate at 1500 ug pretreated for 90 mins measured after 66 hrs in presence of S9 fraction by AMES test (reference value: 24.33 +/- 9.50); type: toxicity, subcellular, Salmonella enterica subsp. enterica serovar Typhimurium; settings: s9, 67.5 h, dose 1500 µg
[16] = Mutagenicity in Salmonella typhimurium TA98 assessed as mutagenic index ratio at 50 ug pretreated for 90 mins measured after 66 hrs in presence of S9 fraction by AMES test; type: toxicity, subcellular, Salmonella enterica subsp. enterica serovar Typhimurium; settings: s9, 67.5 h, dose 50 µg
[17] = Mutagenicity in Salmonella typhimurium TA98 assessed as mutagenic index ratio at 150 ug pretreated for 90 mins measured after 66 hrs in presence of S9 fraction by AMES test; type: toxicity, subcellular, Salmonella enterica subsp. enterica serovar Typhimurium; settings: s9, 67.5 h, dose 150 µg
[18] = Mutagenicity in Salmonella typhimurium TA98 assessed as mutagenic index ratio at 500 ug pretreated for 90 mins measured after 66 hrs in presence of S9 fraction by AMES test; type: toxicity, subcellular, Salmonella enterica subsp. enterica serovar Typhimurium; settings: s9, 67.5 h, dose 500 µg
[19] = Mutagenicity in Salmonella typhimurium TA98 assessed as mutagenic index ratio at 1500 ug pretreated for 90 mins measured after 66 hrs in presence of S9 fraction by AMES test; type: toxicity, subcellular, Salmonella enterica subsp. enterica serovar Typhimurium; settings: s9, 67.5 h, dose 1500 µg
[20] = Mutagenicity in Salmonella typhimurium TA98 assessed as mutagenic index ratio at 5000 ug pretreated for 90 mins measured after 66 hrs in presence of S9 fraction by AMES test; type: toxicity, subcellular, Salmonella enterica subsp. enterica serovar Typhimurium; settings: s9, 67.5 h, dose 5000 µg
[21] = Mutagenicity in Salmonella typhimurium TA100 assessed as mutagenic index ratio at 50 ug pretreated for 90 mins measured after 66 hrs by AMES test; type: toxicity, Salmonella enterica subsp. enterica serovar Typhimurium; settings: in vivo, 67.5 h, dose 50 µg
[22] = Mutagenicity in Salmonella typhimurium TA100 assessed as mutagenic index ratio at 150 ug pretreated for 90 mins measured after 66 hrs by AMES test; type: toxicity, Salmonella enterica subsp. enterica serovar Typhimurium; settings: in vivo, 67.5 h, dose 150 µg
[23] = Mutagenicity in Salmonella typhimurium TA100 assessed as mutagenic index ratio at 500 ug pretreated for 90 mins measured after 66 hrs by AMES test; type: toxicity, Salmonella enterica subsp. enterica serovar Typhimurium; settings: in vivo, 67.5 h, dose 500 µg
[24] = Mutagenicity in Salmonella typhimurium TA100 assessed as mutagenic index ratio at 1500 ug pretreated for 90 mins measured after 66 hrs by AMES test; type: toxicity, Salmonella enterica subsp. enterica serovar Typhimurium; settings: in vivo, 67.5 h, dose 1500 µg
[25] = Mutagenicity in Salmonella typhimurium TA100 assessed as number of revertants per plate at 50 ug pretreated for 90 mins measured after 66 hrs in presence of S9 by AMES test (reference value: 201 +/- 9.90); type: toxicity, Salmonella enterica subsp. enterica serovar Typhimurium; settings: in vivo, 67.5 h, dose 50 µg
[26] = Mutagenicity in Salmonella typhimurium TA100 assessed as number of revertants per plate at 500 ug pretreated for 90 mins measured after 66 hrs in presence of S9 by AMES test (reference value: 201 +/- 9.90); type: toxicity, Salmonella enterica subsp. enterica serovar Typhimurium; settings: in vivo, 67.5 h, dose 500 µg
[27] = Mutagenicity in Salmonella typhimurium TA100 assessed as mutagenic index ratio at 150 ug pretreated for 90 mins measured after 66 hrs in presence of S9 by AMES test; type: toxicity, Salmonella enterica subsp. enterica serovar Typhimurium; settings: in vivo, 67.5 h, dose 150 µg
[28] = Mutagenicity in Salmonella typhimurium TA100 assessed as mutagenic index ratio at 1500 ug pretreated for 90 mins measured after 66 hrs in presence of S9 by AMES test; type: toxicity, Salmonella enterica subsp. enterica serovar Typhimurium; settings: in vivo, 67.5 h, dose 1500 µg
[29] = Mutagenicity in Salmonella typhimurium TA100 assessed as mutagenic index ratio at 5000 ug pretreated for 90 mins measured after 66 hrs in presence of S9 by AMES test; type: toxicity, Salmonella enterica subsp. enterica serovar Typhimurium; settings: in vivo, 67.5 h, dose 5000 µg

N#Cc1ccccc1C1Sc2ccccc2NC2=C1C(=O)c1ccccc12 (centres undefined)
remaining at 24 h, 2 mg/ml [1]: 80% | IC50 (Chlamydia trachomatis [2]; read-out: IC50): 1.61 µg/mL | IC50 (Chlamydia trachomatis [2]; read-out: pIC50 (converted)): 4.37 µM | Activity (Chlamydia trachomatis [3]): Dose-Dependent Effect | MIC (Escherichia coli): > 125 µg/mL | MIC [4]: > 125 µg/mL | MIC [5]: > 125 µg/mL | MIC (Nakaseomyces glabratus): > 1000 µg/mL | MIC (Pichia kudriavzevii): > 1000 µg/mL | MIC (Candida tropicalis): > 1000 µg/mL | viability at 20 h, 256 ug/ml [6]: ≥ 75% | viability at 20 h, 256 ug/ml [7]: 50% | remaining at 24 h, 2 mg/ml [8]: 85% | Activity [9]: 26 | Activity [10]: 34.5 | Ratio [11]: 1.34 | Ratio [12]: 1.48 | Activity [13]: 35 | Activity [14]: 43.5 | Activity [15]: 30.5 | Ratio [16]: 1.31 | Ratio [17]: 1.43 | Ratio [18]: 1.78 | Ratio [19]: 1.25 | Ratio [20]: 1.78 | Ratio [21]: 0.92 | Ratio [22]: 0.91 | Ratio [23]: 1.13 | Ratio [24]: 1.16 | Activity [25]: 185 | Activity [26]: 191.5 | Ratio [27]: 0.93 | Ratio [28]: 0.98 | Ratio [29]: 1.12
